Experimental data from article PMC12024213, “Mechanism Insight of Cell Death Signaling by Thymol Derivatives on Trypanosomatidae Protozoan Parasites” (Antibiotics, 2025).
Where two headings read alike, the source gives them in different places.

Tests used:
L. amazonensis = assay: ATP level, CellTiter-Glo, L. amazonensis; format: cell-based, Leishmania amazonensis; conditions: IC90, 24 h, luminescence
Method: (§1) The adenosine triphosphate (ATP) level was measured using the CellTiter-Glo Luminescent Cell Viability Assay (Promega, Madrid, Spain). The mitochondria in which most cellular oxidations occur is considered the main source of cell’s ATP; any damage and/or malfunction of this organelle generate the depletion of ATP levels.

[1] = Intramacrophagic stage assay, T. cruzi in J774.A1 macrophages; format: cell-based, Trypanosoma cruzi; conditions: mouse; CC50 J774.A1 / IC50 intracellular T. cruzi; read-out: Selectivity Trypanosoma SI (CC50/IC50)
Method: (§2) Briefly, in a 96-well plate, macrophages from the J774.A1 cell line were seeded at a final concentration of 2 × 10^5 cells/mL in Dulbecco’s Modified Eagle Medium (DMEM) and maintained at 37 °C in a 5% CO2 atmosphere until fully adhesion. Cells were infected either with L. amazonensis promastigotes (at a ratio of 1:10) or epimastigotes of T. cruzi (at a ratio of 1:7) (macrophage: parasite) and incubated at 37 °C in 5% CO2 for 24 h for Leishmania and 48 h for Trypanosoma. After infection, plates were washed using DMEM to eliminate external parasites. Subsequently, infected macrophages were treated with different concentrations of active compounds for 24 h. Later, macrophages were lysed using 30 μL of medium, Schneider for Leishmania, and in liver infusion tryptose for Trypanosoma, containing 0.05% of sodium dodecyl sulfate (SDS) for 30 s under agitation. Afterwards, 170 μL of the appropriated medium was derivatives added to each well to give a final volume of 200 μL. Subsequently, 10% of alamarBlue® was added into each well and the plate was incubated at 26 °C for 72 h.
(§3) Cytotoxicity effect of the tested derivatives was conducted using macrophages of the murine cell line J774.A1 (American Type Culture Collection #TIB-67, city, country), as previously described. The cells were maintained in DMEM at 37 °C in a 5% CO2 humidified incubator. All the plates containing alamarBlue® were analyzed using a plate reader EnSpire Multimode Plate Reader® at excitation and emission wavelengths of 570 and 585 nm, respectively (PerkinElmer, ThermoFisher Scientific, Madrid, Spain). The IC50 (concentrations able to inhibit 50% of parasites), IC90 (concentrations able to inhibit 90% of parasites), and CC50 (concentration able to inhibit 50% of murine macrophages) values were determined for each compound by nonlinear regression using GraphPad software.

intramacrophage T. cruzi = assay: as above; format: cell-based, Trypanosoma cruzi; conditions: Trypanosoma cruzi; intramacrophage stage in J774.A1, 24 h treatment; mean ± SD; read-out: T. cruzi Intracellular IC50
Method: as §2, §3

[2] = tested on: L. amazonensis promastigotes; assay: Hoechst/PI double stain, chromatin condensation, L. amazonensis; format: cell-based, Leishmania amazonensis; conditions: IC90, 24 h
Text: (§4) To identify the type of cell death occurring in both kinetoplastids after treatment, Hoechst 33342 and propidium iodide (PI) dyes were used. Even though both dyes are DNA affine, the Hoechst 33342 stain is cell permeable and known to distinguish apoptotic cells from healthy or necrotic cells, whereas the PI is cell impermeable and stain dead cells as late apoptotic or necrosis. After treatment, three types of staining could be observed: blue fluorescence for cells undergoing apoptosis, violet color as the merge of blue and red fluorescence for late apoptotic cells, and red color for dead cells.

T. cruzi = assay: ATP level, CellTiter-Glo, T. cruzi; format: cell-based, Trypanosoma cruzi; conditions: IC90, 24 h, luminescence
Method: as §1

[3] = tested on: L. amazonensis promastigotes; assay: Monodansylcadaverine staining of autophagic vacuoles, L. amazonensis; format: cell-based, Leishmania amazonensis; conditions: 24 h treatment, confocal microscopy
Method: (§5) The present method consists of staining the autophagic vacuoles with the treated cells by ion trapping and specific interactions with the vesicle membrane lipids. The experiment was carried out by following the manufacturer’s recommendations, and as described previously. After 24 h of incubation, cells were stained with MDC reagent at 5 mM and incubated at 26 °C for 30 min in µ-Slide 8 (Ibidi, Gräfelfing, Germany). Later, the cells were washed with PBS and observed with Leica DMI 4000 B.

[4] = tested on: intramacrophage L. amazonensis; assay: Intramacrophagic stage assay, L. amazonensis in J774.A1 macrophages; format: cell-based, Leishmania amazonensis; conditions: Leishmania amazonensis; intramacrophage stage in J774.A1, 24 h treatment; mean ± SD; read-out: L. amazonensis Intracellular IC50
Method: as §2, with “fully adhesion. […] After infection,” for “fully adhesion. Cells were infected either with L. amazonensis promastigotes (at a ratio of 1:10) or epimastigotes of T. cruzi (at a ratio of 1:7) (macrophage: parasite) and incubated at 37 °C in 5% CO2 for 24 h for Leishmania and 48 h for Trypanosoma. After infection,”, “72 h. Cytotoxicity effect of the tested derivatives was conducted using macrophages of the murine cell line J774.A1 (American Type Culture Collection #TIB-67, city, country), as previously described. The cells were maintained in DMEM at 37 °C in a 5% CO2 humidified incubator.” for “72 h.”

[5] = as above; format: cell-based, Leishmania amazonensis; conditions: mouse; CC50 J774.A1 / IC50 intracellular L. amazonensis; read-out: Selectivity Leishmania SI (CC50/IC50)
Method: as §2, with “fully adhesion. […] After infection,” for “fully adhesion. Cells were infected either with L. amazonensis promastigotes (at a ratio of 1:10) or epimastigotes of T. cruzi (at a ratio of 1:7) (macrophage: parasite) and incubated at 37 °C in 5% CO2 for 24 h for Leishmania and 48 h for Trypanosoma. After infection,”, “72 h. Cytotoxicity effect of the tested derivatives was conducted using macrophages of the murine cell line J774.A1 (American Type Culture Collection #TIB-67, city, country), as previously described. The cells were maintained in DMEM at 37 °C in a 5% CO2 humidified incubator.” for “72 h.”

T. cruzi epimastigotes [6] = assay: Hoechst/PI double stain, chromatin condensation, T. cruzi; format: cell-based, Trypanosoma cruzi; conditions: IC90, 24 h
Text: as §4

[7] = Cytotoxicity assay on murine macrophages (alamarBlue); format: cell-based; conditions: mouse, J774.A1 macrophage cell line, mean ± SD
Method: as §3

T. cruzi epimastigotes [8] = assay: Monodansylcadaverine staining of autophagic vacuoles, T. cruzi; format: cell-based, Trypanosoma cruzi; conditions: 24 h treatment, confocal microscopy
Method: as §5

T. cruzi epimastigotes [9] = assay: alamarBlue assay on T. cruzi epimastigotes; format: cell-based, Trypanosoma cruzi; conditions: Trypanosoma cruzi
Method: (§6) In a 96-well plate, a serial dilution of the tested derivatives was performed in liver infusion tryptose medium supplemented with 10% heat inactivated fetal bovine serum. Later, 100 µL of 5 × 10^5 cells/mL of epimastigotes was added to each well. Afterwards, 20 µL of alamarBlue® was added to each well, and the plate was maintained at 26 °C for 72 h.
as §3

[10] = alamarBlue assay on T. cruzi epimastigotes; format: cell-based, Trypanosoma cruzi; conditions: mouse; CC50 J774.A1 / IC50 T. cruzi epimastigotes; read-out: Selectivity Trypanosoma SI (CC50/IC50)
Method: as §6, §3

[11] = 72 h, epimastigotes, alamarBlue, 72 h at 26 °C, mean ± SD, triplicates, read-out: T. cruzi Epimastigote IC50

| SMILES | decrease of ATP production compared to negative control (L. amazonensis) | selectivity ratio [1] | IC50 (intramacrophage T. cruzi) | chromatin condensation (Hoechst/PI staining) [2] | decrease of ATP production compared to negative control (T. cruzi) | autophagic vacuoles (MDC staining) [3] | IC50 [4] | selectivity ratio [5] | chromatin condensation (Hoechst/PI staining) (T. cruzi epimastigotes [6]) | CC50 [7] | autophagic vacuoles (MDC staining) (T. cruzi epimastigotes [8]) | IC50 (T. cruzi epimastigotes [9]; [11]) | IC50 (T. cruzi epimastigotes [9]; abstract, stage not stated, read-out: IC50 against T. cruzi (abstract)) | selectivity ratio [10] |
| --- | --- | --- | --- | --- | --- | --- | --- | --- | --- | --- | --- | --- | --- | --- |
| Cc1ccc(C(C)C)c(OC(=O)c2ccccn2)c1 [Derivative 10, thymyl picolinate] | 67% | 8.8 | 28.8 ± 5.6 µM | increasing the chromatin condensation | 50% | Induction of autophagy | 25.3 ± 0.8 µM | 10.1 | increasing the chromatin condensation | 254.5 ± 1.9 µM | Induction of autophagy | 35.5 ± 2.5 µM | 25.2 µM | 7.2 |
| COc1ccc(C(=O)Oc2cc(C)ccc2C(C)C)cc1 [Derivative 9, thymyl anysoate] | 84% | > 33 | 9.1 ± 0.5 µM | increasing the chromatin condensation | 65% | Induction of autophagy | 15.2 ± 0.8 µM | > 19.7 | increasing the chromatin condensation | > 300 µM | Induction of autophagy | 26.8 ± 2.2 µM | – | > 11.2 |
